What was measured:
T-47D = assay: NCI-60 5-dose screen; format: cell-based, human; conditions: for GI50 / CC50: Homo sapiens, T47D; for CC50: read-out: LC50 (the source's name)
SNB-75 = assay: NCI-60 5-dose screen; format: cell-based, human; conditions: for GI50 / CC50: Homo sapiens; for CC50: read-out: LC50 (the source's name)
KM12 = assay: NCI-60 5-dose screen; format: cell-based, human; conditions: for GI50 / CC50: Homo sapiens; for CC50: read-out: LC50 (the source's name)
HS 578T = assay: NCI-60 5-dose screen; format: cell-based, human; conditions: for GI50 / CC50: Homo sapiens; for CC50: read-out: LC50 (the source's name)
ACHN = assay: NCI-60 5-dose screen; format: cell-based, human; conditions: for GI50 / CC50: Homo sapiens; for CC50: read-out: LC50 (the source's name)
CCRF-CEM = assay: NCI-60 5-dose screen; format: cell-based; conditions: Homo sapiens; for CC50: read-out: LC50 (the source's name)
MALME-3M = assay: NCI-60 5-dose screen; format: cell-based, human; conditions: for GI50 / CC50: Homo sapiens, Malme-3M; for CC50: read-out: LC50 (the source's name); for TGI: MALME-3M
SR = assay: NCI-60 5-dose screen; format: cell-based, human; conditions: for GI50 / CC50: Homo sapiens; for CC50: read-out: LC50 (the source's name)
SK-OV-3 = assay: NCI-60 5-dose screen; format: cell-based, human; conditions: for GI50 / CC50: Homo sapiens; for CC50: read-out: LC50 (the source's name)
SK-MEL-2 = assay: NCI-60 5-dose screen; format: cell-based, human; conditions: for GI50 / CC50: Homo sapiens; for CC50: read-out: LC50 (the source's name)
TK-10 = assay: NCI-60 5-dose screen; format: cell-based, human; conditions: for GI50 / CC50: Homo sapiens; for CC50: read-out: LC50 (the source's name)
A549/ATCC = assay: NCI-60 5-dose screen; format: cell-based, human; conditions: for GI50 / CC50: Homo sapiens; for CC50: read-out: LC50 (the source's name)
HL-60(TB) = assay: NCI-60 5-dose screen; format: cell-based, human; conditions: for GI50 / CC50: Homo sapiens; for CC50: read-out: LC50 (the source's name)
BT-549 = assay: NCI-60 5-dose screen; format: cell-based, human; conditions: for GI50 / CC50: Homo sapiens; for CC50: read-out: LC50 (the source's name)
HCT-116 = assay: NCI-60 5-dose screen; format: cell-based, human; conditions: for GI50 / CC50: Homo sapiens; for CC50: read-out: LC50 (the source's name)
OVCAR-3 = assay: NCI-60 5-dose screen; format: cell-based, human; conditions: for GI50 / CC50: Homo sapiens; for CC50: read-out: LC50 (the source's name)
CAKI-1 = assay: NCI-60 5-dose screen; format: cell-based, human; conditions: for GI50 / CC50: Homo sapiens; for CC50: read-out: LC50 (the source's name)
MDA-MB-468 = assay: NCI-60 5-dose screen; format: cell-based, human; conditions: for GI50 / CC50: Homo sapiens; for CC50: read-out: LC50 (the source's name)
M14 = assay: NCI-60 5-dose screen; format: cell-based, human; conditions: for GI50 / CC50: Homo sapiens; for CC50: read-out: LC50 (the source's name)
U-118MG = assay: CellTiter-Glo 2.0 cytotoxicity, glioblastoma; format: cell-based, human; conditions: 50 µM, 24 h
Method: (§1) Cytotoxicity of compounds was assessed using the CellTiter-Glo® 2.0 Assay (Promega, Madison, WI, USA) on human gingival fibroblasts (HGF), osteosarcoma (HOS and MG-63) and glioblastoma (LN-229 and U-118MG) cells, according to the manufacturer’s instructions. HGF, HOS, MG-63 and U-118MG cells were purchased from Cytion GmbH, Eppelheim, Germany, and LN-229 (CRL-2611) from the American Type Culture Collection (ATCC), Manassas, VA, USA. Cells were seeded (50,000 cells/mL—HGF, 100,000 cells/mL—tumor cells) into 96-well opaque white tissue culture-treated plates and allowed to adhere overnight in αMEM medium with 10% fetal bovine serum and 1% antibiotic-antimycotic (all from PAN—Biotech GmbH, Aidenbach, Germany). Cells were incubated with compounds (10 or 50 µM) for 24 h, then CellTiter-Glo® reagent was added and luminescence was recorded using a FLUOstar® Omega microplate reader (BMG LABTECH, Ortenberg, Germany). The experiments were carried out in triplicate, and the viability of treated cells was expressed as a percentage of the viability of control cells (untreated). Data were represented as means ± standard deviations. Stock solutions of compounds were prepared in DMSO, then diluted in complete cell culture media. […] Data were analyzed with independent two-tailed (Student’s) t-test, considering p < 0.05 statistically significant.

LN-229 = assay: CellTiter-Glo 2.0 cytotoxicity, glioblastoma; format: cell-based, human; conditions: LN-229, 24 h
Method: as §1

COLO 205 = assay: NCI-60 5-dose screen; format: cell-based, human; conditions: for GI50 / CC50: Homo sapiens; for CC50: read-out: LC50 (the source's name)
LOX IMVI = assay: NCI-60 5-dose screen; format: cell-based, human; conditions: for GI50 / CC50: Homo sapiens; for CC50: read-out: LC50 (the source's name)
HOP-62 = assay: NCI-60 5-dose screen; format: cell-based, human; conditions: for GI50 / CC50: Homo sapiens; for CC50: read-out: LC50 (the source's name)
[1] = system: osteosarcoma (HOS and MG-63) cells; assay: CellTiter-Glo 2.0 cytotoxicity, osteosarcoma; format: cell-based, human; conditions: osteosarcoma cell lines, 10 and 50 µM, 24 h
Method: as §1

fungal strains = system: fungal strains; design: method as in PMID 38398524; conditions: cited from earlier work

Compound: O=C1C(Nc2ccc(I)cc2)=CC(c2ccc(C(F)(F)F)cc2)N1c1ccc(I)cc1 (stereo not shown) [3e]
- TGI (T-47D): 7.57 µM
- GI50 (T-47D): 2.74 µM
- CC50 (T-47D): > 100 µM
- TGI (SNB-75): 5.06 µM
- GI50 (SNB-75): 2.6 µM
- CC50 (SNB-75): 9.85 µM
- TGI (KM12): >100 µM
- GI50 (KM12): > 100 µM
- CC50 (KM12): > 100 µM
- TGI (HS 578T): 9.97 µM
- GI50 (HS 578T): 3.45 µM
- CC50 (HS 578T): > 100 µM
- TGI (ACHN): >100 µM
- GI50 (ACHN): 4.05 µM
- CC50 (ACHN): > 100 µM
- GI50 (CCRF-CEM): 3.35 µM
- CC50 (CCRF-CEM): > 100 µM
- GI50 (MALME-3M): 2 µM
- CC50 (MALME-3M): 9.34 µM
- TGI (MALME-3M): 4.32 µM
- TGI (SR): >100 µM
- GI50 (SR): 2.84 µM
- CC50 (SR): > 100 µM
- TGI (SK-OV-3): >100 µM
- GI50 (SK-OV-3): > 100 µM
- CC50 (SK-OV-3): > 100 µM
- TGI (SK-MEL-2): >100 µM
- GI50 (SK-MEL-2): > 100 µM
- CC50 (SK-MEL-2): > 100 µM
- TGI (TK-10): >100 µM
- GI50 (TK-10): > 100 µM
- CC50 (TK-10): > 100 µM
- TGI (A549/ATCC): >100 µM
- GI50 (A549/ATCC): > 100 µM
- CC50 (A549/ATCC): > 100 µM
- TGI (HL-60(TB)): >100 µM
- GI50 (HL-60(TB)): 4.48 µM
- CC50 (HL-60(TB)): > 100 µM
- TGI (BT-549): >100 µM
- GI50 (BT-549): 9.61 µM
- CC50 (BT-549): > 100 µM
- TGI (HCT-116): >100 µM
- GI50 (HCT-116): 5.92 µM
- CC50 (HCT-116): > 100 µM
- TGI (OVCAR-3): >100 µM
- GI50 (OVCAR-3): 7.48 µM
- CC50 (OVCAR-3): > 100 µM
- TGI (CAKI-1): >100 µM
- GI50 (CAKI-1): 3.72 µM
- CC50 (CAKI-1): > 100 µM
- TGI (MDA-MB-468): >100 µM
- GI50 (MDA-MB-468): 3.24 µM
- CC50 (MDA-MB-468): > 100 µM
- TGI (M14): >100 µM
- GI50 (M14): 8.94 µM
- CC50 (M14): > 100 µM
- cytotoxicity (activity in words) (U-118MG): moderate activity
- cytotoxicity (activity in words) (LN-229): ineffective
- TGI (COLO 205): >100 µM
- GI50 (COLO 205): 4.57 µM
- CC50 (COLO 205): > 100 µM
- TGI (LOX IMVI): >100 µM
- GI50 (LOX IMVI): > 100 µM
- CC50 (LOX IMVI): > 100 µM
- TGI (HOP-62): >100 µM
- GI50 (HOP-62): > 100 µM
- CC50 (HOP-62): > 100 µM

Compound: O=C1C(Nc2ccc(I)cc2)=CC(c2ccc(O)cc2)N1c1ccc(I)cc1 (stereo not shown) [3g]
- cytotoxicity (activity in words) [1]: notable activity
- cytotoxicity (activity in words) (U-118MG): moderate activity
- cytotoxicity (activity in words) (LN-229): ineffective

Compound: COc1ccccc1C1C=C(Nc2ccc(I)cc2)C(=O)N1c1ccc(I)cc1 (stereo not shown) [3i]
- antifungal activity (in words) (fungal strains): most effective against fungal strains

Compound: N#Cc1ccc(C2C=C(Nc3ccc(I)cc3)C(=O)N2c2ccc(I)cc2)cc1 (stereo not shown) [3l]
- TGI (T-47D): >100 µM
- GI50 (T-47D): 7.13 µM
- CC50 (T-47D): > 100 µM
- TGI (SNB-75): 3.42 µM
- GI50 (SNB-75): 1.34 µM
- CC50 (SNB-75): 8.76 µM
- TGI (KM12): >100 µM
- GI50 (KM12): 9.7 µM
- CC50 (KM12): > 100 µM
- TGI (HS 578T): 5.64 µM
- GI50 (HS 578T): 2.1 µM
- CC50 (HS 578T): > 100 µM
- TGI (ACHN): >100 µM
- GI50 (ACHN): 5.36 µM
- CC50 (ACHN): > 100 µM
- GI50 (CCRF-CEM): 3.26 µM
- CC50 (CCRF-CEM): > 100 µM
- antifungal activity (in words) (fungal strains): most effective against fungal strains
- GI50 (MALME-3M): 2.07 µM
- CC50 (MALME-3M): > 100 µM
- TGI (MALME-3M): >100 µM
- TGI (SR): >100 µM
- GI50 (SR): 6.28 µM
- CC50 (SR): > 100 µM
- TGI (SK-OV-3): >100 µM
- GI50 (SK-OV-3): 6.41 µM
- CC50 (SK-OV-3): > 100 µM
- TGI (SK-MEL-2): >100 µM
- GI50 (SK-MEL-2): 3.7 µM
- CC50 (SK-MEL-2): > 100 µM
- TGI (TK-10): >100 µM
- GI50 (TK-10): 3.85 µM
- CC50 (TK-10): > 100 µM
- TGI (A549/ATCC): >100 µM
- GI50 (A549/ATCC): 8.08 µM
- CC50 (A549/ATCC): > 100 µM
- TGI (HL-60(TB)): >100 µM
- GI50 (HL-60(TB)): > 100 µM
- CC50 (HL-60(TB)): > 100 µM
- TGI (BT-549): >100 µM
- GI50 (BT-549): 5.81 µM
- CC50 (BT-549): > 100 µM
- TGI (HCT-116): >100 µM
- GI50 (HCT-116): 3.83 µM
- CC50 (HCT-116): > 100 µM
- TGI (OVCAR-3): >100 µM
- GI50 (OVCAR-3): 4.72 µM
- CC50 (OVCAR-3): > 100 µM
- TGI (CAKI-1): >100 µM
- GI50 (CAKI-1): 9.48 µM
- CC50 (CAKI-1): > 100 µM
- TGI (MDA-MB-468): >100 µM
- GI50 (MDA-MB-468): 2.7 µM
- CC50 (MDA-MB-468): > 100 µM
- TGI (M14): >100 µM
- GI50 (M14): 7.24 µM
- CC50 (M14): > 100 µM
- cytotoxicity (activity in words) (U-118MG): moderate activity
- cytotoxicity (activity in words) (LN-229): ineffective
- TGI (COLO 205): >100 µM
- GI50 (COLO 205): 5.29 µM
- CC50 (COLO 205): > 100 µM
- TGI (LOX IMVI): >100 µM
- GI50 (LOX IMVI): 3.38 µM
- CC50 (LOX IMVI): > 100 µM
- TGI (HOP-62): >100 µM
- GI50 (HOP-62): 5.21 µM
- CC50 (HOP-62): > 100 µM

From paper PMC12736255, “Reinvestigating Pyrrol-2-One-Based Compounds: From Antimicrobial Agents to Promising Antitumor Candidates” (Pharmaceuticals, 2025)
